The subject of experiment [1] is Acinetobacter baumannii. Nature of the experiment: Antibiofilm activity against Acinetobacter baumannii assessed as inhibition of biofilm formation at 50 uM incubated for 24 hrs at stationary condition by crystal violet staining based assay relative to control. In kind it is functional.
Experiment [2] concerns Acinetobacter baumannii. Nature of the experiment: Antibiofilm activity against Acinetobacter baumannii assessed as inhibition of planktonic growth at 300 uM. Format: functional, organism-based.
For the next experiment, the system named is Escherichia coli. Kind of experiment: Antibiofilm activity against Escherichia coli assessed as inhibition of biofilm formation at 50 uM incubated for 24 hrs at stationary condition by crystal violet staining based assay relative to control. Format: functional. The conditions noted are these: DH5[alpha].
Experiment [3] relates to Acinetobacter baumannii. Kind of experiment: Antibacterial activity against Acinetobacter baumannii S1 incubated for 24 hrs by checkerboard titration assay. Format: functional.
The subject of a further experiment is Pseudomonas aeruginosa. Nature of the experiment: Antibiofilm activity against Pseudomonas aeruginosa ATCC 27853 assessed as inhibition of biofilm formation at 50 uM incubated for 24 hrs at stationary condition by crystal violet staining based assay relative to control. Format: functional.
In experiment [4] the test system is Acinetobacter baumannii. Kind of experiment: Antibiofilm activity against drug-resistant Acinetobacter baumannii 1925052 assessed as inhibition of biofilm formation at 50 uM incubated for 24 hrs at stationary condition by crystal violet staining based assay relative to control. Format: functional.
The test system of experiment [5] is Acinetobacter baumannii. Kind of experiment: Induction of morphological changes in Acinetobacter baumannii biofilm inhibition assessed as reduction in extracellular polysaccharide at 10 uL preincubated for 24 hrs followed by incubating in dark for 1 hr by optical density based plate reader assay relative to control. In kind it is functional. Further details: scale not given: the % may be the effect or the level left.

The subject of experiment [6] is Acinetobacter baumannii. Kind of experiment: Antibacterial activity against Acinetobacter baumannii assessed as reduction in motility at 50 uM after 24 hrs photographic-based method. Format: functional, organism-based.
Experiment [7] deals with Acinetobacter baumannii. Kind of experiment: Synergistic antibacterial activity against Acinetobacter baumannii S1 assessed as FICI incubated for 24 hrs in presence of gentamycin sulfate by checkerboard titration assay. Format: functional.
Experiment [8] relates to Acinetobacter baumannii. Nature of the experiment: Synergistic antibacterial activity against Acinetobacter baumannii S1 incubated for 24 hrs in presence of gentamycin sulfate by checkerboard titration assay. Format: functional.
Experiment [9] relates to Acinetobacter baumannii. Kind of experiment: Synergistic antibacterial activity against Acinetobacter baumannii S1 assessed as FIC incubated for 24 hrs in presence of gentamycin sulfate by checkerboard titration assay. In kind it is functional.
Experiment [10] concerns Acinetobacter baumannii. Kind of experiment: Antibacterial activity against Acinetobacter baumannii assessed as bacterial death at 50 uM incubated for 15 mins by SYTO9 and PI staining based fluorescence microscopic method. Format: functional, organism-based.
Experiment [11] deals with Acinetobacter baumannii. Nature of the experiment: Synergistic antibacterial activity against Acinetobacter baumannii S1 assessed as FIC incubated for 24 hrs in presence of 1-(3-chlorobenzyl)-3-hydroxy-2-(2-hydroxyphenyl)-2,3-dihydroquinazolin-4(1H)-one by checkerboard titration assay. In kind it is functional.
Experiment [12] deals with Acinetobacter baumannii. Kind of experiment: Synergistic antibacterial activity against Acinetobacter baumannii S1 assessed as FIC incubated for 24 hrs in presence of 3-hydroxy-2-isopropyl-1-octyl-2,3-dihydroquinazolin-4(1H)-one by checkerboard titration assay. Format: functional.

Activity calls are given as the source filed them. The rule behind the calls is not given here.

Turning to `O=C1c2ccccc2N(Cc2ccccc2)C(c2ccccc2O)N1O` (stereo not given), in the experiment on Acinetobacter baumannii [1], the inhibition at 50 µM is 17.5%. The inhibition result in the experiment with Acinetobacter baumannii [2] is “inactive”.
As for `O=C1c2ccccc2N(Cc2cccc(Cl)c2)C(c2ccccc2O)N1O` (stereo not given), the inhibition at 50 µM with Acinetobacter baumannii [1] was determined as 34.1%; in the experiment with Escherichia coli, 27.5%; with Pseudomonas aeruginosa it was 55.4%; with Acinetobacter baumannii [4], 38.2%. The MIC in the experiment with Acinetobacter baumannii [3] is 1020 µg/mL; in the experiment with Acinetobacter baumannii [8] it was 2 µg/mL. The inhibition result with Acinetobacter baumannii [2] was “inactive”. Also, the Activity in the experiment with Acinetobacter baumannii [5] was determined as 34%. For the same compound, the outcome in the experiment with Acinetobacter baumannii [6] was Active. Further, in the experiment on Acinetobacter baumannii [7], the “fractional inhibitory concentration index (FICI)” value turned out to be 0.252. Moreover, in the experiment on Acinetobacter baumannii [9], the Ratio was determined as 0.002.
In the case of `N#Cc1ccccc1CN1c2ccccc2C(=O)N(O)C1c1ccccc1O` (stereo not given), the inhibition at 50 µM in the experiment on Acinetobacter baumannii [1] came out at 17.6%. The inhibition entry in the experiment on Acinetobacter baumannii [2] is “inactive”.
`CCCCCCCCN1c2ccccc2C(=O)N(O)C1C(C)C` (stereo not given): in the experiment on Acinetobacter baumannii [1], the inhibition at 50 µM was found to be 10.2%. The inhibition entry in the experiment with Acinetobacter baumannii [2] was “inactive”. In the experiment with Acinetobacter baumannii [10], the result was inactive.
Turning to `CCCCCCCCN1c2ccccc2C(=O)N(O)C1c1ccccc1O` (stereo not given), the inhibition at 50 µM in the experiment on Acinetobacter baumannii [1] amounted to 23.5%. For the same compound, in the experiment with Acinetobacter baumannii [2], the inhibition entry is “inactive”.
The like results for `CCCCCCCCCCCCN1c2ccccc2C(=O)N(O)C1c1ccccc1O` (stereo not given) were, in that order, 8.9% and “inactive”.
The like results for `CCCCCCCCCCCCCCN1c2ccccc2C(=O)N(O)C1c1ccccc1O` (stereo not given) were, in that order, 20.9% and “inactive”.
As for `CCC/C=C/C1N(O)C(=O)c2ccccc2N1CCCCCCCC` (stereo not given), the inhibition at 50 µM with Acinetobacter baumannii [1] came out at 2.4%. For the same compound, the inhibition result with Acinetobacter baumannii [2] is “inactive”.
Take `O=C(Cc1cccc(Br)c1)N[C@H]1CCOC1=O`: the inhibition at 50 µM was 7.9% in the experiment with Acinetobacter baumannii [1], 50.1% with Escherichia coli, -1.72% in the experiment with Pseudomonas aeruginosa and 28.2% in the experiment on Acinetobacter baumannii [4].
Consider `CCCCCCN1c2ccccc2C(=O)N(O)C1c1ccccc1O` (stereo not given), for which, in the experiment on Acinetobacter baumannii [1], the inhibition at 50 µM worked out at 7.7%. Also, the inhibition entry in the experiment on Acinetobacter baumannii [2] is “inactive”.
As to `CCCCCCCCCCN1c2ccccc2C(=O)N(O)C1c1ccccc1O` (stereo not given), the inhibition at 50 µM in the experiment on Acinetobacter baumannii [1] worked out at 30.7%; in the experiment with Escherichia coli it was 40.8%; with Pseudomonas aeruginosa it was 44.5%; in the experiment with Acinetobacter baumannii [4], 43.4%. Further, the MIC was 1020 µg/mL in the experiment with Acinetobacter baumannii [3] and 2 µg/mL in the experiment with Acinetobacter baumannii [8]. The inhibition result with Acinetobacter baumannii [2] is “inactive”. For the same compound, the Activity in the experiment on Acinetobacter baumannii [5] turned out to be 31%. The result in the experiment with Acinetobacter baumannii [6] was Active. Besides, the “fractional inhibitory concentration index (FICI)” value with Acinetobacter baumannii [7] amounted to 0.252. The Ratio with Acinetobacter baumannii [9] amounted to 0.002.
For `CCCCCCCCN1c2ccccc2C(=O)N(O)C1c1ccc(O)cc1` (stereo not given), the inhibition at 50 µM in the experiment with Acinetobacter baumannii [1] came to 13.3%. The inhibition entry in the experiment on Acinetobacter baumannii [2] was “inactive”.
With `CCCCN1c2ccccc2C(=O)N(O)C1c1ccccc1O` (stereo not given), the inhibition at 50 µM in the experiment on Acinetobacter baumannii [1] stood at 29.7%. For the same compound, in the experiment with Acinetobacter baumannii [2], the inhibition entry is “inactive”.
For `CCCCCCCCN1c2ccccc2C(=O)N(O)C1c1ccccc1OC` (stereo not given) the same measures were 7.2% and “inactive”.
The like results for `CCCCCCCCN1c2ccccc2C(=O)N(O)C1c1ccc(Cl)cc1` (stereo not given) were, in that order, 5.2% and “inactive”.
For `CCCCCCCCN1c2ccccc2C(=O)N(O)C1c1ccccc1` (stereo not given) the same measures were 5.5% and “inactive”.
Turning to `O=C1c2ccccc2NC(c2ccccc2O)N1O` (stereo not given), the inhibition at 50 µM in the experiment with Acinetobacter baumannii [1] stood at 16.3%. The inhibition result in the experiment on Acinetobacter baumannii [2] was “inactive”.
For `CCCCCCCCN1c2ccccc2C(=O)N(O)C1c1ccccc1Cl` (stereo not given) the same measures were 8.1% and “inactive”.
The like results for `O=C1c2ccccc2N(Cc2cccc(F)c2)C(c2ccccc2O)N1O` (stereo not given) were, in that order, 27.5% and “inactive”.
As to `CN[C@@H]1[C@@H](O)[C@@H](O[C@@H]2[C@@H](O)[C@H](O[C@H]3O[C@H]([C@@H](C)NC)CC[C@H]3N)[C@@H](N)C[C@H]2N)OC[C@]1(C)O.O=S(=O)(O)O`, the minimum inhibitory concentration (MIC) with Acinetobacter baumannii [3] was determined as 0.25 µg/mL. The FIC in the experiment on Acinetobacter baumannii [11] and with Acinetobacter baumannii [12] was 0.25 in each case.
`CCCCCCCCN1c2ccccc2C(=O)N(O)C1c1ccc(C)cc1` (stereo not given): the inhibition at 50 µM with Acinetobacter baumannii [1] was 9.2%. In addition, in the experiment with Acinetobacter baumannii [2], the inhibition result is “inactive”.
For `CCCCCCCCCCCCCCCCN1c2ccccc2C(=O)N(O)C1c1ccccc1O` (stereo not given), the inhibition at 50 µM in the experiment with Acinetobacter baumannii [1] was determined as 4.7%. In addition, the inhibition entry with Acinetobacter baumannii [2] is “inactive”.
In the case of `CN1c2ccccc2C(=O)N(O)C1c1ccccc1O` (stereo not given), the inhibition at 50 µM with Acinetobacter baumannii [1] is 14.6%. In addition, in the experiment with Acinetobacter baumannii [2], the inhibition result is “inactive”.
With `CCCCCCCCN1c2ccccc2C(=O)N(O)C1c1ccc(OC)cc1` (stereo not given), in the experiment on Acinetobacter baumannii [1], the inhibition at 50 µM was 1.3%. Besides, in the experiment with Acinetobacter baumannii [2], the inhibition result is “inactive”.

The values are drawn from ChEMBL document CHEMBL4725286, “Synthesis and antibiofilm evaluation of 3-hydroxy-2,3-dihydroquinazolin-4(1H)-one derivatives against opportunistic pathogen Acinetobacter baumannii” (2020).
